Laboratory results taken from patent US20230278972A1, “SUBSTITUTED HALOALKYL SULFONANILIDE HERBICIDES” (FMC Corporation, priority 2020, published 2023).

Experiments:
Assay type in all cases: in vivo
[1] = tested on: pigweed (Amaranthus retroflexus); assay: Test A preemergence, pigweed; conditions: for Plant response rating, Pigweed: 0 to 100 scale (0 no effect, 100 complete control)
Description: Seeds of plant species selected from barnyardgrass (Echinochloa crus-galli), kochia (Bassia scoparia), ragweed (common ragweed, Ambrosia artemisiifolia), Ryegrass, Italian (Italian ryegrass, Lolium multiflorum), Foxtail, Giant (giant foxtail, Setaria faberi), and pigweed (Amaranthus retroflexus) were planted into a blend of loam soil and sand and treated preemergence with a directed soil spray using test chemicals formulated in a non-phytotoxic solvent mixture which included a surfactant. At the same time, plants selected from these weed species and also wheat (Triticum aestivum), corn (Zea mays), blackgrass (Alopecurus myosuroides), and galium (catchweed bedstraw, Galium aparine) were planted in pots containing the same blend of loam soil and sand and treated with postemergence applications of test chemicals formulated in the same manner. Plants ranged in height from 2 to 10 cm and were in the one- to two-leaf stage for the postemergence treatment. […] A dash (-) response means no test result.

[2] = tested on: wheat (Triticum aestivum); assay: Test A postemergence, wheat; conditions: Postemergence, 0 to 100 scale (0 no effect, 100 complete control); for Plant response rating, Wheat: 125 g ai/ha; for Wheat plant response rating: 500 g ai/ha, visual injury vs untreated controls after approx. 10 days
Procedure, shortened: (§1)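 Compounds in non-phytotoxic solvent with surfactant. Soil: loam/sand. Preemergence via directed soil spray after seeding; postemergence on seedlings 2–10 cm, one- to two-leaf.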

kochia (Bassia scoparia) [3] = assay: Test A preemergence, kochia; conditions: Preemergence; for Plant response rating, Kochia: 0 to 100 scale (0 no effect, 100 complete control)
Procedure, shortened: (§2)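 Postemergence ratings come from foliar sprays onto one- to two-leaf plants of 2 to 10 cm grown in loam/sand; preemergence ratings come from a directed spray onto the soil of newly seeded pots. Formulation was a surfactant-containing non-phytotoxic solvent blend.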

[4] = tested on: ragweed (common ragweed, Ambrosia artemisiifolia); assay: Test A postemergence, ragweed; conditions: Postemergence, 0 to 100 scale (0 no effect, 100 complete control); for Plant response rating, Ragweed: 125 g ai/ha; for Ragweed plant response rating: 500 g ai/ha, visual injury vs untreated controls after approx. 10 days
Procedure, shortened: as §2

[5] = tested on: Ryegrass, Italian (Italian ryegrass, Lolium multiflorum); assay: Test A preemergence, Ryegrass, Italian; conditions: Preemergence; for Plant response rating, Ryegrass, Italian: 0 to 100 scale (0 no effect, 100 complete control)
Procedure, shortened: as §2

[6] = tested on: blackgrass (Alopecurus myosuroides); assay: Test A postemergence, blackgrass; conditions: Postemergence, 0 to 100 scale (0 no effect, 100 complete control); for Plant response rating, Blackgrass: 125 g ai/ha; for Blackgrass plant response rating: 500 g ai/ha, visual injury vs untreated controls after approx. 10 days
Procedure, shortened: as §2

[7] = tested on: pigweed (Amaranthus retroflexus); assay: Test A postemergence, pigweed; conditions: Postemergence, 0 to 100 scale (0 no effect, 100 complete control); for Plant response rating, Pigweed: 125 g ai/ha; for Pigweed plant response rating: 500 g ai/ha, visual injury vs untreated controls after approx. 10 days
Procedure, shortened: as §2

kochia (Bassia scoparia) [8] = assay: Test A postemergence, kochia; conditions: Postemergence, 0 to 100 scale (0 no effect, 100 complete control); for Plant response rating, Kochia: 125 g ai/ha; for Kochia plant response rating: 500 g ai/ha, visual injury vs untreated controls after approx. 10 days
Procedure, shortened: as §2

corn (Zea mays) = assay: Test A postemergence, corn; conditions: Postemergence, 0 to 100 scale (0 no effect, 100 complete control); for Plant response rating, Corn: 125 g ai/ha; for Corn plant response rating: 500 g ai/ha, visual injury vs untreated controls after approx. 10 days
Procedure, shortened: as §2

[9] = tested on: Ryegrass, Italian (Italian ryegrass, Lolium multiflorum); assay: Test A postemergence, Ryegrass, Italian; conditions: Postemergence, 0 to 100 scale (0 no effect, 100 complete control); for Plant response rating, Ryegrass, Italian: 125 g ai/ha; for Ryegrass, Italian plant response rating: 500 g ai/ha, visual injury vs untreated controls after approx. 10 days
Procedure, shortened: as §2

[10] = tested on: Foxtail, Giant (giant foxtail, Setaria faberi); assay: Test A preemergence, Foxtail, Giant; conditions: Preemergence; for Plant response rating, Foxtail, Giant: 0 to 100 scale (0 no effect, 100 complete control)
Procedure, shortened: as §2

[11] = tested on: barnyardgrass (Echinochloa crus-galli); assay: Test A preemergence, barnyardgrass; conditions: Preemergence; for Plant response rating, Barnyardgrass: 0 to 100 scale (0 no effect, 100 complete control)
Procedure, shortened: as §2

[12] = tested on: galium (catchweed bedstraw, Galium aparine); assay: Test A postemergence, galium; conditions: Postemergence, 0 to 100 scale (0 no effect, 100 complete control); for Plant response rating, Galium: 125 g ai/ha; for Galium plant response rating: 500 g ai/ha, visual injury vs untreated controls after approx. 10 days
Procedure, shortened: as §1

[13] = tested on: Foxtail, Giant (giant foxtail, Setaria faberi); assay: Test A postemergence, Foxtail, Giant; conditions: Postemergence, 0 to 100 scale (0 no effect, 100 complete control); for Plant response rating, Foxtail, Giant: 125 g ai/ha; for Foxtail, Giant plant response rating: 500 g ai/ha, visual injury vs untreated controls after approx. 10 days
Procedure, shortened: as §2

[14] = tested on: ragweed (common ragweed, Ambrosia artemisiifolia); assay: Test A preemergence, ragweed; conditions: Preemergence; for Plant response rating, Ragweed: 0 to 100 scale (0 no effect, 100 complete control)
Procedure, shortened: as §2

[15] = 125 g ai/ha, visual injury on 0 to 100 scale (0 no effect, 100 complete control), approximately 10 days
[16] = 125 g ai/ha, visual injury, approx. 10 days

| Compound | Plant response rating, Pigweed ([1]; 500 g ai/ha) | Wheat plant response rating [2] | Plant response rating, Kochia (kochia (Bassia scoparia) [3]; 500 g ai/ha) | Ragweed plant response rating [4] | Plant response rating, Ryegrass, Italian ([5]; 500 g ai/ha) | Blackgrass plant response rating [6] | Pigweed plant response rating [7] | Kochia plant response rating (kochia (Bassia scoparia) [8]) | Corn plant response rating (corn (Zea mays)) | Ryegrass, Italian plant response rating [9] | Plant response rating, Foxtail, Giant ([10]; 500 g ai/ha) | Plant response rating, Barnyardgrass ([11]; 500 g ai/ha) | Galium plant response rating [12] | Foxtail, Giant plant response rating [13] | Plant response rating, Ragweed ([14]; 500 g ai/ha) | Plant response rating, Pigweed [1, 16] | Plant response rating, Wheat [2] | Plant response rating, Kochia (kochia (Bassia scoparia) [3]; [16]) | Plant response rating, Ragweed [4] | Plant response rating, Ryegrass, Italian [5, 16] | other results |
| --- | --- | --- | --- | --- | --- | --- | --- | --- | --- | --- | --- | --- | --- | --- | --- | --- | --- | --- | --- | --- | --- |
| Cc1cc(C)c(N(S(=O)(=O)C(F)(F)F)S(=O)(=O)C(F)(F)F)cc1-c1ccnn(C)c1=O [Compound 76] | 100 | 80 | 90 | 90 | 100 | 50 | 90 | 90 | 70 | 80 | 100 | 90 | 100 | 90 | 90 | – | – | – | – | – | Pigweed plant response rating [1, 15]: 50; Plant response rating, Wheat ([2]; visual injury approx. 10 days): 40; Kochia plant response rating (kochia (Bassia scoparia) [3]; [15]): 60; Plant response rating, Ragweed ([4]; visual injury approx. 10 days): 60; Ryegrass, Italian plant response rating [5, 15]: 60; Plant response rating, Blackgrass ([6]; visual injury approx. 10 days): 50; Plant response rating, Pigweed ([7]; visual injury approx. 10 days): 70; Plant response rating, Kochia (kochia (Bassia scoparia) [8]; visual injury approx. 10 days): 50; Plant response rating, Corn (corn (Zea mays); visual injury approx. 10 days): 0; Plant response rating, Ryegrass, Italian ([9]; visual injury approx. 10 days): 70; Foxtail, Giant plant response rating [10, 15]: 100; Barnyardgrass plant response rating [11, 15]: 90; Plant response rating, Galium ([12]; visual injury approx. 10 days): 90; Plant response rating, Foxtail, Giant ([13]; visual injury approx. 10 days): 90; Ragweed plant response rating [14, 15]: 70 |
| Cc1cc(C)c(N(S(=O)(=O)C(F)(F)F)S(=O)(=O)C(F)(F)F)cc1C1=NOC2(CCC2)C1 [Compound 196] | 100 | 0 | 80 | 30 | 70 | 0 | 50 | 20 | 0 | 30 | 100 | 90 | 80 | 0 | 0 | 50 | 0 | 70 | 0 | 20 | Plant response rating, Blackgrass [6]: 0; Plant response rating, Pigweed [7]: 30; Plant response rating, Kochia (kochia (Bassia scoparia) [8]): 10; Plant response rating, Corn (corn (Zea mays)): 0; Plant response rating, Ryegrass, Italian [9]: 0; Plant response rating, Foxtail, Giant [10, 16]: 30; Plant response rating, Barnyardgrass [11, 16]: 0; Plant response rating, Galium [12]: 60; Plant response rating, Foxtail, Giant [13]: 0; Plant response rating, Ragweed [14, 16]: 0 |
| Cc1cc(C)c(N(S(=O)(=O)C(F)(F)F)S(=O)(=O)C(F)(F)F)cc1C1=NOC2(CCCCC2)C1 [Compound 198] | 100 | 40 | 80 | 80 | 90 | 0 | 70 | 60 | 20 | 40 | 100 | 100 | 90 | 30 | 80 | 70 | 20 | 60 | 20 | 60 | Plant response rating, Blackgrass [6]: 10; Plant response rating, Pigweed [7]: 50; Plant response rating, Kochia (kochia (Bassia scoparia) [8]): 20; Plant response rating, Corn (corn (Zea mays)): 20; Plant response rating, Ryegrass, Italian [9]: 30; Plant response rating, Foxtail, Giant [10, 16]: 100; Plant response rating, Barnyardgrass [11, 16]: 80; Plant response rating, Galium [12]: 70; Plant response rating, Foxtail, Giant [13]: 0; Plant response rating, Ragweed [14, 16]: 70 |
| Cc1cc(Cl)c(N(S(=O)(=O)C(F)(F)F)S(=O)(=O)C(F)(F)F)cc1C(=O)N1CCC(Cl)CC1 [Compound 200] | 100 | 70 | 90 | 30 | 90 | 0 | 90 | 40 | 20 | 20 | 100 | 100 | 90 | 20 | 90 | 100 | 20 | 60 | 0 | 30 | Plant response rating, Blackgrass [6]: 0; Plant response rating, Pigweed [7]: 60; Plant response rating, Kochia (kochia (Bassia scoparia) [8]): 10; Plant response rating, Corn (corn (Zea mays)): 0; Plant response rating, Ryegrass, Italian [9]: 20; Plant response rating, Foxtail, Giant [10, 16]: 90; Plant response rating, Barnyardgrass [11, 16]: 30; Plant response rating, Galium [12]: 60; Plant response rating, Foxtail, Giant [13]: 0; Plant response rating, Ragweed [14, 16]: 40 |
| Cc1cc(Cl)c(NS(=O)(=O)C(F)(F)F)cc1C(=O)N1CCC(F)CC1 [Compound 201] | 100 | 70 | 100 | 90 | 90 | 30 | 100 | 90 | 50 | 70 | 100 | 100 | 90 | 90 | 100 | 100 | 60 | 90 | 80 | 60 | Plant response rating, Blackgrass [6]: 20; Plant response rating, Pigweed [7]: 60; Plant response rating, Kochia (kochia (Bassia scoparia) [8]): 60; Plant response rating, Corn (corn (Zea mays)): 20; Plant response rating, Ryegrass, Italian [9]: 30; Plant response rating, Foxtail, Giant [10, 16]: 50; Plant response rating, Barnyardgrass [11, 16]: 50; Plant response rating, Galium [12]: 90; Plant response rating, Foxtail, Giant [13]: 50; Plant response rating, Ragweed [14, 16]: 70 |
